# Experimental data published in ChEMBL document CHEMBL1201862, “PubChem BioAssay data set” (2004).
# Calls of active or inactive are those of the source.
# Experiments:
# [1] = Luminescence Cell-Based Dose Confirmation HTS to Identify Activators of 5'UTR Stem-Loop Driven Alpha-Synuclein mRNA Translation in H4 Neuroglioblastoma Cells. [Related pubchem assays: 1829 (Project Summary), 1814 (Primary HTS)]; type: functional
# [2] = Luminescence Cell-Based Dose Response HTS to Identify Activators of Luciferase Translation or Activity in H4 […] Cells. [Related pubchem assays: 1829 (Project Summary), 1814 (Primary HTS)]; type: functional
# H4 = assay: Luminescence Cell-Based Dose Response HTS to Identify Activators of 5'UTR Stem-Loop Driven Prion Protein mRNA Translation in H4 Neuroglioblastoma Cells. [Related pubchem assays: 1829 (Project Summary), 1814 (Primary HTS)]; type: functional; conditions: Homo sapiens
# Insulin-degrading enzyme [3] = molecular target: T1, Insulin-degrading enzyme (Homo sapiens, UniProt P14735); assay: activators of recombinant IDE enzyme, dose response, counter-screen for IDE activator project, biochemical, fluorescence polarization (AID 588681)
# T1 sequence (P14735 whole entry): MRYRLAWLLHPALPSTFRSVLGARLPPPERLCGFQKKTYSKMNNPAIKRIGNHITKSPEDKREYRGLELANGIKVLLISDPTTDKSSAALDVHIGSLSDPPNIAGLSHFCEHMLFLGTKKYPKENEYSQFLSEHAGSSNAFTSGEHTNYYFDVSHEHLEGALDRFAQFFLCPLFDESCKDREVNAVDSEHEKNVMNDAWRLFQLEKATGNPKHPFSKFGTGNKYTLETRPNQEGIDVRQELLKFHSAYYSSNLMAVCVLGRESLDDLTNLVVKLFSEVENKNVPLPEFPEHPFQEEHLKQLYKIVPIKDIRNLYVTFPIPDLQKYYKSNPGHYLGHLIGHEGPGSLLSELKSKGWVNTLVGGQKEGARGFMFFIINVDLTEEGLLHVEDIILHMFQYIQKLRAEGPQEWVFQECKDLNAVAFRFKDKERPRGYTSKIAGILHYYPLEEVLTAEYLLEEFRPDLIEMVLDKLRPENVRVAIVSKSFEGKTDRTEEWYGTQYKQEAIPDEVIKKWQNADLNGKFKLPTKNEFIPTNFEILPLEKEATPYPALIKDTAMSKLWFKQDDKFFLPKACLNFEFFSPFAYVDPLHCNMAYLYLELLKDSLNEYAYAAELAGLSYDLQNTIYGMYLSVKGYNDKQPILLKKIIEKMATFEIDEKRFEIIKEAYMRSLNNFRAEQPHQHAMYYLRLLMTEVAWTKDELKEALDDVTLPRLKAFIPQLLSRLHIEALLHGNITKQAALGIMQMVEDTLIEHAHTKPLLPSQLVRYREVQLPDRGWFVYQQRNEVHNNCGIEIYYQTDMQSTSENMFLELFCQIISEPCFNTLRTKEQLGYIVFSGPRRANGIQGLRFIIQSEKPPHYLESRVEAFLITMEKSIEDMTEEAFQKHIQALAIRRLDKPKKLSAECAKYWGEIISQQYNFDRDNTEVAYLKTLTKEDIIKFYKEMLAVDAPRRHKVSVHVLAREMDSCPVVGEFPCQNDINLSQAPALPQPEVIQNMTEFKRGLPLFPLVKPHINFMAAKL
# Insulin-degrading enzyme [4] = molecular target: T1, Insulin-degrading enzyme; assay: activators of endogenous IDE in HEK cells, dose response, cell-based, fluorescence polarization (AID 588439); type: functional
# HEK293 [5] = assay: HEK cell cytotoxicity by LDH release, dose response, cytotoxicity control for IDE activator project, fluorescence, HEK cells (AID 588440); type: functional, cell-based; conditions: Homo sapiens;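 also: cytotoxicity by LDH release measuring loss of membrane integrity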
# HEK293 [6] = assay: optical interference in Abeta FP readout, dose response, artefact control for IDE activator project, biochemical, fluorescence polarization (AID 588442); type: functional, cell-based; conditions: Homo sapiens
# CHO = assay: cytotoxicity in TLR9-MyD88 CHO cells, dose response, cytotoxicity control for TLR9-MyD88 binding inhibitor project, cell-based, luminescence (AID 588339); type: functional, hamster; conditions: Cricetulus griseus;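 also: CHO cells stably coexpressing TLR9 and MyD88 fusions from primary screen; compound exposure lasted 48 hours before viability readout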
# Beta Lactamase = Beta Lactamase (Pseudomonas aeruginosa, UniProt Q932Y6); assay: beta-lactamase reporter inhibitor potency, dose response, artefact control for TLR9-MyD88 binding inhibitor project, BLA reporter cells, FRET fluorescence (AID 588341); type: cell-based;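 also: cell based assay in CHO-K1 cells stably expressing beta-lactamase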
# Chain of Beta Lactamase (Q932Y6 whole entry): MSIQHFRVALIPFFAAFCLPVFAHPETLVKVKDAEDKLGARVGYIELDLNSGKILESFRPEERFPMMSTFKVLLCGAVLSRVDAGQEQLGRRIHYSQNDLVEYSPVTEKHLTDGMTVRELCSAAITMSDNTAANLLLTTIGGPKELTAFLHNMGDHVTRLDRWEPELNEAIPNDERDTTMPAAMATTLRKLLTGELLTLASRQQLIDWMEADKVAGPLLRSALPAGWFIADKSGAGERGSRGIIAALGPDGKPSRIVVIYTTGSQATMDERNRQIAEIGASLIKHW
# [7] = THP-1 cell cytotoxicity, dose response, cytotoxicity control for Vif-APOBEC3G degradation inhibitor project, THP-1 cells (AID 1117359); type: functional; conditions: Human immunodeficiency virus 1, THP-1
# [8] = molecular target: T2, Voltage-gated N-type calcium channel alpha-1B subunit/Amyloid beta A4 precursor protein-binding family A member 1 (Homo sapiens, UniProt Q00975+Q02410); type: protein assay
# T2 sequence (Q00975 whole entry): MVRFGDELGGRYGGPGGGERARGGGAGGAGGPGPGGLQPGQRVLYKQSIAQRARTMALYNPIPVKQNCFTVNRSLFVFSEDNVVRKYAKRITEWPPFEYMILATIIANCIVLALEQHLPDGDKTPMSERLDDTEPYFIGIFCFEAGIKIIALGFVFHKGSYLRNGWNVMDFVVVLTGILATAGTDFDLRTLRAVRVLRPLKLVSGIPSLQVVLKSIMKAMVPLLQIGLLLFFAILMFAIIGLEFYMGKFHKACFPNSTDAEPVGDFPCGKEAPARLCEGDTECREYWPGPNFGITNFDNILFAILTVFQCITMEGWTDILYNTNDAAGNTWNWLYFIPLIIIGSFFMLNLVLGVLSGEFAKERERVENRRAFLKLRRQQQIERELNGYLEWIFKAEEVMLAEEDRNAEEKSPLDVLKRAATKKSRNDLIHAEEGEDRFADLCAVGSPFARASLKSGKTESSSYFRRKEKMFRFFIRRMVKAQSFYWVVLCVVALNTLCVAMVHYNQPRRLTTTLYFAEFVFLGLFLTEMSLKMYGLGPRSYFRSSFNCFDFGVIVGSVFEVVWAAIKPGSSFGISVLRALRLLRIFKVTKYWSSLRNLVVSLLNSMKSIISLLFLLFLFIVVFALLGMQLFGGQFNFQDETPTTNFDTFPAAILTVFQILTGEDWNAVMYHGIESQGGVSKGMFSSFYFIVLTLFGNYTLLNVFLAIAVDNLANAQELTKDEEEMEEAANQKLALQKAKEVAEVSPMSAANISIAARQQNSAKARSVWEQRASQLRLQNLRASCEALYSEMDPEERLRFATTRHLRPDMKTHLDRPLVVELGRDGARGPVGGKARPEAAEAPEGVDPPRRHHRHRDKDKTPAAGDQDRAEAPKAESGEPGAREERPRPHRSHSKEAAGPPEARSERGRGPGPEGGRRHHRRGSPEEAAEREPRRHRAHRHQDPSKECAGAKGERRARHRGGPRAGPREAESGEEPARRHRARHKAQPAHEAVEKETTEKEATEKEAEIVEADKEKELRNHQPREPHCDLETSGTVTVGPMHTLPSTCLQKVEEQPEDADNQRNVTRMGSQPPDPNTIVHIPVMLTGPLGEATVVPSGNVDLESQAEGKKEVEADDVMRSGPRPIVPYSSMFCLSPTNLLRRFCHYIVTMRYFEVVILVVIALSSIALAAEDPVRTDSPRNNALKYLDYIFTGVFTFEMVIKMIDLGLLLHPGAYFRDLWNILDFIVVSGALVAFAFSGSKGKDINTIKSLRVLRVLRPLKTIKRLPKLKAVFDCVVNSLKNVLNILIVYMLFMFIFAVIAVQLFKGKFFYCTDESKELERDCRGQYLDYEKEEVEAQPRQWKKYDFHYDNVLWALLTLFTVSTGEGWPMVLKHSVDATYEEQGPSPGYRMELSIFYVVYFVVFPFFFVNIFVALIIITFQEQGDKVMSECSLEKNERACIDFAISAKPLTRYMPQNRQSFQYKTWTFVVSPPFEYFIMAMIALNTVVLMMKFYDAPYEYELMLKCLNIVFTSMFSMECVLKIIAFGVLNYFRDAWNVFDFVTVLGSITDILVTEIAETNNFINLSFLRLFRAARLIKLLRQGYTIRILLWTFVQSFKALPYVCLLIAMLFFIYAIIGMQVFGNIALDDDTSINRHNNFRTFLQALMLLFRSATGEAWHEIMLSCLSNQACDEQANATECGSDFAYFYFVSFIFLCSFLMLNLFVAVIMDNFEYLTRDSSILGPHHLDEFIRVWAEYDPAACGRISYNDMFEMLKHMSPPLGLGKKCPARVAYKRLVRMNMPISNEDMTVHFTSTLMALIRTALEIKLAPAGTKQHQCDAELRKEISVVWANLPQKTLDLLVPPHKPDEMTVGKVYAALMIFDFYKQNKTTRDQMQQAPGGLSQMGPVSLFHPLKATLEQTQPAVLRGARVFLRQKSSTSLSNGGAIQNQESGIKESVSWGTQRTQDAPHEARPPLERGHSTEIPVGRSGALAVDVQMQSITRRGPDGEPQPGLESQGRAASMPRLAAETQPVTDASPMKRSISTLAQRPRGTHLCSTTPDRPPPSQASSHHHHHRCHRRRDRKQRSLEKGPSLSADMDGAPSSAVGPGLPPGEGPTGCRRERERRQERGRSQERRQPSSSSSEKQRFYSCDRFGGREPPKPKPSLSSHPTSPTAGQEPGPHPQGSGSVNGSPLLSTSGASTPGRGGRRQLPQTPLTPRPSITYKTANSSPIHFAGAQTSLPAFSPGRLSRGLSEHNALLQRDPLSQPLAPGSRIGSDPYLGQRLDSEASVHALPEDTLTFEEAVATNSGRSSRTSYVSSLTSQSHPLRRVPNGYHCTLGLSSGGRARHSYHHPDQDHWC
# T2 sequence (Q02410 whole entry): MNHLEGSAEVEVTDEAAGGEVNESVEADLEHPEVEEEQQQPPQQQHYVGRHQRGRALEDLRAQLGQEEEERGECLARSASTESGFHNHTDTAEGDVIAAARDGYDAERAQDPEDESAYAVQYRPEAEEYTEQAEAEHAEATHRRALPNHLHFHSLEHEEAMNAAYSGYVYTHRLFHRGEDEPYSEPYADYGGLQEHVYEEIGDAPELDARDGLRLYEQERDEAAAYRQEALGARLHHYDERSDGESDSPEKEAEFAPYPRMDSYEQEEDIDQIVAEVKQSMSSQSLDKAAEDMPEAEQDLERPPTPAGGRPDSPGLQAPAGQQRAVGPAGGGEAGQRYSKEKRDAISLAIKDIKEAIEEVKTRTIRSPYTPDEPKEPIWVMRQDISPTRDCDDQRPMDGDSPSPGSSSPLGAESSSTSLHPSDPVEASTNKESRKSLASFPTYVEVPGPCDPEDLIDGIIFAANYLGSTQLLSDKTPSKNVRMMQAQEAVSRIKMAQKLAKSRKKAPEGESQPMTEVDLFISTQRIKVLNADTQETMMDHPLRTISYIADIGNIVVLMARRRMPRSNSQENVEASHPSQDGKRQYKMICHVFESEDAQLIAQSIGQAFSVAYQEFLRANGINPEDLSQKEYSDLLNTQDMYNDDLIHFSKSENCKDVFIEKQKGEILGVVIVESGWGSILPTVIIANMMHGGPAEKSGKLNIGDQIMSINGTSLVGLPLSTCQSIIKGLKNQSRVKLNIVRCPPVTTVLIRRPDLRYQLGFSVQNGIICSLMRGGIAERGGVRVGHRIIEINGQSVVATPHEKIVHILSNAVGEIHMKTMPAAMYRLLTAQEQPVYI
# [9] = molecular target: T2, Voltage-gated N-type calcium channel alpha-1B subunit/Amyloid beta A4 precursor protein-binding family A member 1; type: protein assay; remark: listed apart in the source
# [10] = molecular target: Induced myeloid leukemia cell differentiation protein Mcl-1 (Homo sapiens, UniProt Q07820); type: functional
# Chain of Induced myeloid leukemia cell differentiation protein Mcl-1 (Q07820 whole entry): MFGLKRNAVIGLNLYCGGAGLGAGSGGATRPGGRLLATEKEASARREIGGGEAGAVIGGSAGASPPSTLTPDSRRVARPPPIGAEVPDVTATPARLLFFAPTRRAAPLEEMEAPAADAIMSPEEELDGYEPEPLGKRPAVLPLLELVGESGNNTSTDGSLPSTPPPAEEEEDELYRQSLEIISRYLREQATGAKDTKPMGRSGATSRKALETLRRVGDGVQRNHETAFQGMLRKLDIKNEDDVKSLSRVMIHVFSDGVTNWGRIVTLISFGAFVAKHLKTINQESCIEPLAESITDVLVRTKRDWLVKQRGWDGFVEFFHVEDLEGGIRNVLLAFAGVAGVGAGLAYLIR
# [11] = molecular target: T3, Short transient receptor potential channel 4 (Mus musculus, UniProt Q9QUQ5); assay: SAR Analysis for the identification of selective inhibits of the transient receptor potential cation channel C4 (TRPC4): Automated Electrophysiology_2. [Related pubchem assays (depositor defined):AID2256]; type: functional
# T3 sequence (Q9QUQ5 whole entry): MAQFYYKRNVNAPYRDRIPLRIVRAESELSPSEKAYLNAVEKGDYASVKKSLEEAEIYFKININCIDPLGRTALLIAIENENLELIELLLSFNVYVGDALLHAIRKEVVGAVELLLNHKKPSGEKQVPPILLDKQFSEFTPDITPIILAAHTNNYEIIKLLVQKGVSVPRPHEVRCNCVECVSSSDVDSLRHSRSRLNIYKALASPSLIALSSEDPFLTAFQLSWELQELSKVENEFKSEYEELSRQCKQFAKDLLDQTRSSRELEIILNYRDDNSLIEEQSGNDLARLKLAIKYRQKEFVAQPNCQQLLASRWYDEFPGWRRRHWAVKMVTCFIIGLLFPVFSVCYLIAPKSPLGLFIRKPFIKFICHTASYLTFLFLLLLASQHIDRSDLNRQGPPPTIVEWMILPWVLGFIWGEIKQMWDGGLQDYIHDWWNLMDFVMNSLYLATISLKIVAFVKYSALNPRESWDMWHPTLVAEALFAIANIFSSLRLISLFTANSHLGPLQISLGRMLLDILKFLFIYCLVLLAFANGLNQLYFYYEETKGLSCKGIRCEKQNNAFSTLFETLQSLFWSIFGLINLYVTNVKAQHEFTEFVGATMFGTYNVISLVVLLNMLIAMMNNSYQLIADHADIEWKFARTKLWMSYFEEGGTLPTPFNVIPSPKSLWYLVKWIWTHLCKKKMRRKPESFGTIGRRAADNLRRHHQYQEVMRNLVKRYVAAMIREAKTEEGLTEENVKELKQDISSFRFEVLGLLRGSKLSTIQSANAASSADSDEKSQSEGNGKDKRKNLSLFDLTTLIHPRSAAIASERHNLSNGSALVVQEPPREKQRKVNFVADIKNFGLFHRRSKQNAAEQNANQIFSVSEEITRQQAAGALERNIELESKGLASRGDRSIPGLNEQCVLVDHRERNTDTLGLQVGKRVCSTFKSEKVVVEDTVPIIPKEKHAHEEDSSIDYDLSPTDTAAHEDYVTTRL
# [12] = molecular target: Short transient receptor potential channel 6 (Mus musculus, UniProt Q61143); assay: TRPC6 inhibition potency of TRPC4 inhibitor analogs, dose response, selectivity assay for selective TRPC4 inhibitor project, HEK293 cells, membrane potential dye, IC50 (AID 492987); type: functional, cell-based
# Chain of Short transient receptor potential channel 6 (Q61143 whole entry): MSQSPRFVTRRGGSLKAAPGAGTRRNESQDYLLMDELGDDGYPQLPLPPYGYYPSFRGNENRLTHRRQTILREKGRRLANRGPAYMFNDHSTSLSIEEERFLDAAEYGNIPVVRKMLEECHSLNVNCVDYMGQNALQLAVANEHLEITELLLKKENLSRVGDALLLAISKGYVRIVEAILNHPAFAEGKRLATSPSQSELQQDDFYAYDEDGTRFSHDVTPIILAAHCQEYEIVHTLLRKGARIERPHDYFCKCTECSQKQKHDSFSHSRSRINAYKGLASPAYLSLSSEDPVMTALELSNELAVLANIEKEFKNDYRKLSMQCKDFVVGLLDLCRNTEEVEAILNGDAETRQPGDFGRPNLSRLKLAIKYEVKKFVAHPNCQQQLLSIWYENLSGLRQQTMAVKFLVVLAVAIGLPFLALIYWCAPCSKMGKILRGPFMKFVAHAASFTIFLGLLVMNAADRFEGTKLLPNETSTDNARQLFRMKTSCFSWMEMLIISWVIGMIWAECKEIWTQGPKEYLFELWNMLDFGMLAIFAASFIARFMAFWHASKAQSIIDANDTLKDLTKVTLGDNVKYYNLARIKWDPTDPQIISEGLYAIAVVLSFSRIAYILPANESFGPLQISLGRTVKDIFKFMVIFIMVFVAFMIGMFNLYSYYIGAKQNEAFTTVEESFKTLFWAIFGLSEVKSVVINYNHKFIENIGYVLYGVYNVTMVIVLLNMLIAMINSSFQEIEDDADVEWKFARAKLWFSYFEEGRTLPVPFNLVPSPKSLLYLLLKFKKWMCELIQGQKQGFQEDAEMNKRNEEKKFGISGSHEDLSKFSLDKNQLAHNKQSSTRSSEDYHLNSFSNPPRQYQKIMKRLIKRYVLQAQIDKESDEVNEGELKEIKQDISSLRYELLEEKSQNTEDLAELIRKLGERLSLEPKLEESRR
# [13] = molecular target: T3, Short transient receptor potential channel 4; assay: TRPC4 inhibitor concentration-response, dose response, cell-based, HEK293 TRPC4/mu-opioid, DAMGO stimulus, Fluo-4 (AID 492994); type: functional
smiles,measurement,setting,value
Cc1ccc(NC(=O)C2C3C=CC4(CN(Cc5cccnc5)C(=O)C24)O3)cc1 (stereo not drawn),EC50,[1],> 120 µM (not active)
same,EC50,[2],11.9 µM (active)
same,EC50,H4,14 µM (active)
same,EC50,Insulin-degrading enzyme [3],> 54.7 µM (inactive)
same,EC50,Insulin-degrading enzyme [4],> 54.7 µM (inactive)
same,IC50,HEK293 [5],> 89.2 µM (inactive)
same,EC50,HEK293 [6],> 55.9 µM (inactive)
CC[C@H](C)/C=C(C)/C=C/C1=CC2=CC(=O)[C@]3(C)OC(=O)[C@@H](C(C)=O)[C@@H]3C2=CO1,IC50,CHO,> 49.7 µM (inactive)
same,IC50,Beta Lactamase,8.86 µM (active)
same,CC50,[7],> 40 µM (active)
Cc1cc2nc(/C=C/c3nc4cc(C)c(C)cc4[nH]3)[nH]c2cc1C,IC50,[8],18.5 µM (active)
same,IC50,[9],> 50 µM (inactive)
same,IC50,[10],3.67 µM (active)
same,IC50,CHO,> 49.7 µM (inactive)
same,IC50,Beta Lactamase,20.9 µM (inactive)
Cc1ccc2nc(N3CCCCCC3)cc(C)c2c1,IC50,[11],0.9 µM (active)
same,IC50,[12],12.8 µM (active)
same,IC50,[13],1.3 µM (active)
